Measurements from patent US11633418B2, “Deoxyribonucleoside monophospate bypass therapy for mitochondrial DNA depletion syndrome” (priority 2015, dated 2023).

Test: Dissolution in liquid (water, formula or milk)
Type: physicochemical
Protocol: The preferred form of the administration of the deoxyribonucleoside monophosphates is in the form of disodium salts of the deoxyribonucleoside monophosphates. […] Once administered, the deoxyribonucleoside monophosphates salts convert to the free acid form. By way of example, for some of the oral administration to human patients, 2000 mg each of dTMP Na2 and dCMP Na2 were dissolved in 25 ml of water.

Dissolution in liquid (such as water, formula or milk) | Compound
easily dissolved | Cc1cn([C@H]2C[C@H](O)[C@@H](COP(=O)([O-])[O-])O2)c(=O)[nH]c1=O.[Na+].[Na+] [dTMP Na2]
easily dissolved | Nc1ccn([C@H]2C[C@H](O)[C@@H](COP(=O)([O-])[O-])O2)c(=O)n1.[Na+].[Na+] [dCMP Na2]
